Here are results for nine compounds from patent US20240287138A1, “CYCLIC PEPTIDES FOR INHIBITING TNF RECEPTOR 1 ACTIVITY” (Merck Sharp & Dohme LLC, priority 2023, published 2024).

SMILES strings stand for the structures. Numbered stars: 1 amine (or outer) side, 2 acyl side, 3 side chain; on linkers, the order of the positions; unused ones are H or OH. Bridge positions count the residues as written; N and C are the ends. Square brackets hold non-standard residues; d marks the D form. Peptide text beside a SMILES is read from it. * marks the point of attachment. Ala(2-carboxypyrimidin-5-yl) = N[C@@H](Cc1cnc(C(=O)O)nc1)C(=O)O; Trp(βS-Me,7-OMe) = COc1cccc2c([C@H](C)[C@H](N)C(=O)O)c[nH]c12; X49 = C[N+](C)(C)CC(=O)N[C@H]1C[C@H](C(=O)[*:2])N([*:1])C1; Ala(1-bicyclo(1.1.1)pentyl) = N[C@@H](CC12CC(C1)C2)C(=O)O; Trp(1-CH2COOH) = N[C@@H](Cc1cn(CC(=O)O)c2ccccc12)C(=O)O; X54 = O=C(O)c1c(F)cc(C[C@H](N[*:1])C(=O)[*:2])cc1F; Trp(7-CN) = N#Cc1cccc2c(C[C@H](N)C(=O)O)c[nH]c12; Trp(7-Cl) = N[C@@H](Cc1c[nH]c2c(Cl)cccc12)C(=O)O; Phe(3-COOH) = N[C@@H](Cc1cccc(C(=O)O)c1)C(=O)O; Phe(4-CONH2) = NC(=O)c1ccc(C[C@H](N)C(=O)O)cc1; Phe(4-COOH) = N[C@@H](Cc1ccc(C(=O)O)cc1)C(=O)O; Trp(7-aza) = N[C@@H](Cc1c[nH]c2ncccc12)C(=O)O; X18 = O=C([C@@H]1C=C[C@H](N[*:1])C1)[*:2]; Pip(5R-OH) = O=C(O)[C@@H]1CC[C@@H](O)CN1; X1 = O=C([C@@H]1CC[C@H](N[*:1])C1)[*:2]; X40 = CCN([C@H](C)C(=O)[*:2])[*:1]; Pip(4-aza) = O=C(O)[C@@H]1CNCCN1; 4Pal = N[C@@H](Cc1ccncc1)C(=O)O; NMeE = CN[C@@H](CCC(=O)O)C(=O)O; dHyp = O=C(O)[C@H]1C[C@H](O)CN1; αMeS = C[C@](N)(CO)C(=O)O; Nle = CCCC[C@H](N)C(=O)O; Me2NCH2CH2 = CN(C)CC*; Sar = CNCC(=O)O

The target of test [1] is T1, TNFα-induced NF-κB signal transduction pathway (TNFR1 signaling) in THP-1 cells (Homo sapiens, UniProt P19438).
T1 sequence (P19438 30-455): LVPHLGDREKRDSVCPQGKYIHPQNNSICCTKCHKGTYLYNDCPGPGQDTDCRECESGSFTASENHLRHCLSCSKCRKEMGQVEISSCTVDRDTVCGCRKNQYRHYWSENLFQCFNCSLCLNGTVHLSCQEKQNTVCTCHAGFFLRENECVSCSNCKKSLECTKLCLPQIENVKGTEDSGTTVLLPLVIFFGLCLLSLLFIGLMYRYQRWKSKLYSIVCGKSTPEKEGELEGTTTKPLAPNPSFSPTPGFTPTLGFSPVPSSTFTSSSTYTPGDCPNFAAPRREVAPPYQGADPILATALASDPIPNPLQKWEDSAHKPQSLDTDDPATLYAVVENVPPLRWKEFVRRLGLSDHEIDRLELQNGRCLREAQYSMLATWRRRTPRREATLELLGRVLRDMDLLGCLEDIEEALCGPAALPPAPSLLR
The test is described as follows: THP-1 Lucia NF-κB reporter cell assay, inhibition of TNFα-induced NF-κB signaling. The test is classed as cell-based. To be noted: THP-1 NF-κB Lucia reporter cells, 10 ng/mL TNFα, 16-18 h, secreted luciferase; read-out: THP-1 IC50. The gist of the method: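 THP-1 Lucia NF-κB cells, 20k/well, no selection antibiotics; peptide pre-inc 1 h 37 °C; + recombinant human TNFα 10 ng/mL final; o.n.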

The target of test [2] is T2, human soluble TNFR1 (sTNFR1) (Homo sapiens, UniProt P19438).
T2 construct: made in house; host or cells: Sf21 (baculovirus)
T2 sequence (P19438 with tags, fused parts or gaps): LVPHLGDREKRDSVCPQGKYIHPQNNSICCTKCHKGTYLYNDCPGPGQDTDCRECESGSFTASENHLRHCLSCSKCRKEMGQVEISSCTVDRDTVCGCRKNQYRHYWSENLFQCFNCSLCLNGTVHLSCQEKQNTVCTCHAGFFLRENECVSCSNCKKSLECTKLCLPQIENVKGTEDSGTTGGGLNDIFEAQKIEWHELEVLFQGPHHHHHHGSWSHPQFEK
Nature of the test: Human sTNFR1-peptide displacement assay (LanthaScreen Eu TR-FRET binding assay). In a few lines:
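Readout is the 665/615 nm TR-FRET ratio (Eu anti-His donor, streptavidin-Alexa647 acceptor), normalized to DMSO and saturating displacer, fit by Morrison-based five-parameter logistic for Kd^app. His-tagged sTNFR1 (1-211) prebound to 100 nM biotinylated peptide SEQ ID NO.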
In general terms: Time-resolved FRET reads energy transfer from a long-lived donor to a nearby acceptor.

What is called IC50 is the concentration that gives 50% inhibition. A word on the Kd: it is a measure of binding affinity in units of concentration. The low end stands for a tighter complex, the high end for a looser complex. Turning to `CCCC[C@@H]1NC(=O)[C@@H]2C=C[C@@H](C2)NC(=O)[C@H]([C@@H](C)c2c[nH]c3c(OC)cccc23)NC(=O)CN(C)C(=O)[C@H](Cc2ccc(O)cc2)NC(=O)[C@H](Cc2ccc(C(=O)O)cc2)NC(=O)[C@](C)(CO)NC(=O)[C@H](Cc2c[nH]c3c(Cl)cccc23)NC(=O)[C@H](Cc2ccncc2)NC(=O)[C@H](CC(N)=O)NC(=O)[C@H](CCC(=O)O)N(C)C(=O)[C@H](Cc2c[nH]c3ccccc23)NC(=O)[C@@H]2CNCCN2C(=O)[C@H](Cc2ccncc2)NC1=O` [SEQ ID NO. 182] (cyclo([4Pal][Trp(7-Cl)][αMeS][Phe(4-COOH)]Y[Sar][Trp(βS-Me,7-OMe)][X18][Nle][4Pal][Pip(4-aza)]W[NMeE]N)), in test [1], the IC50 turned out to be 900 pM. This compound also had a Kd in test [2] of 200 pM.

Turning to `CCCC[C@@H]1NC(=O)CSC[C@@H](C(N)=O)NC(=O)[C@H]([C@@H](C)c2c[nH]c3c(OC)cccc23)NC(=O)CN(C)C(=O)[C@H](Cc2cccc(C(=O)O)c2)NC(=O)[C@H](Cc2ccc(C(N)=O)cc2)NC(=O)[C@](C)(CO)NC(=O)[C@H](Cc2c[nH]c3c(Cl)cccc23)NC(=O)[C@H](Cc2ccc(C(N)=O)cc2)NC(=O)[C@H](CC(N)=O)NC(=O)[C@H](CCC(=O)O)N(C)C(=O)[C@H](Cc2c[nH]c3ccccc23)NC(=O)[C@@H]2CNCCN2C(=O)[C@H](Cc2ccncc2)NC1=O` [SEQ ID NO. 184] ({CH2CO}-[Nle][4Pal][Pip(4-aza)]W[NMeE]N[Phe(4-CONH2)][Trp(7-Cl)][αMeS][Phe(4-CONH2)][Phe(3-COOH)][Sar][Trp(βS-Me,7-OMe)]C-NH2; thioether N-14), the IC50 stood at 1700 pM in test [1] and 500 pM in test [2].

Consider `CCCC[C@@H]1NC(=O)CSC[C@@H](C(N)=O)NC(=O)[C@H]([C@@H](C)c2c[nH]c3c(OC)cccc23)NC(=O)CN(C)C(=O)[C@H](Cc2ccc(O)cc2)NC(=O)[C@H](Cc2ccc(C(N)=O)cc2)NC(=O)[C@](C)(CO)NC(=O)[C@H](Cc2c[nH]c3c(Cl)cccc23)NC(=O)[C@H](Cc2ccc(C(=O)O)cc2)NC(=O)[C@H](CC(N)=O)NC(=O)[C@H]2C[C@H](O)CN2C(=O)[C@H](Cc2c[nH]c3ccccc23)NC(=O)[C@@H]2CC[C@@H](O)CN2C(=O)[C@H](Cc2ccncc2)NC1=O` [SEQ ID NO. 185] ({CH2CO}-[Nle][4Pal][Pip(5R-OH)]W[dHyp]N[Phe(4-COOH)][Trp(7-Cl)][αMeS][Phe(4-CONH2)]Y[Sar][Trp(βS-Me,7-OMe)]C-NH2; thioether N-14), for which the values for the IC50 in test [1] and in test [2] were 900 pM and 200 pM, respectively. The compound further returned a Kd in test [2] of 160 pM.

Consider `CCCC[C@@H]1NC(=O)CSC[C@@H](C(N)=O)NC(=O)[C@H]([C@@H](C)c2c[nH]c3c(OC)cccc23)NC(=O)CN(C)C(=O)[C@H](Cc2ccc(O)cc2)NC(=O)[C@H](Cc2ccc(C(N)=O)cc2)NC(=O)[C@](C)(CO)NC(=O)[C@H](Cc2c[nH]c3c(Cl)cccc23)NC(=O)[C@H](Cc2ccncc2)NC(=O)[C@H](CC(N)=O)NC(=O)[C@@H](C)N(CC)C(=O)[C@H](Cc2c[nH]c3ccccc23)NC(=O)[C@@H]2CC[C@@H](O)CN2C(=O)[C@H](Cc2ccncc2)NC1=O` [SEQ ID NO. 186] ({CH2CO}-[Nle][4Pal][Pip(5R-OH)]W[X40]N[4Pal][Trp(7-Cl)][αMeS][Phe(4-CONH2)]Y[Sar][Trp(βS-Me,7-OMe)]C-NH2; thioether N-14), for which, in test [1], the IC50 came to 1900 pM. In test [2], this compound had a half-inhibitory concentration (IC50) of 500 pM and a Kd of 420 pM.

`COc1cccc2c([C@H](C)[C@@H]3NC(=O)CN(C)C(=O)[C@H](Cc4ccc(O)cc4)NC(=O)[C@H](Cc4ccc(C(=O)O)cc4)NC(=O)[C@](C)(CO)NC(=O)[C@H](Cc4c[nH]c5c(Cl)cccc45)NC(=O)[C@H](Cc4ccncc4)NC(=O)[C@H](CC(N)=O)NC(=O)[C@H](CCC(=O)O)N(C)C(=O)[C@H](Cc4c[nH]c5ccccc45)NC(=O)[C@@H]4CNCCN4C(=O)[C@H](Cc4ccncc4)NC(=O)[C@H](CC45CC(C4)C5)NC(=O)[C@@H]4CC[C@@H](C4)NC3=O)c[nH]c12` [SEQ ID NO. 190] (cyclo([4Pal][Trp(7-Cl)][αMeS][Phe(4-COOH)]Y[Sar][Trp(βS-Me,7-OMe)][X1][Ala(1-bicyclo(1.1.1)pentyl)][4Pal][Pip(4-aza)]W[NMeE]N)): in test [1], the IC50 was 1600 pM. In test [2], the equilibrium dissociation constant (Kd) worked out at 330 pM.

Take `CCCC[C@@H]1NC(=O)[C@@H]2CC[C@@H](C2)NC(=O)[C@H]([C@@H](C)c2c[nH]c3c(OC)cccc23)NC(=O)CN(C)C(=O)[C@H](Cc2cnc(C(=O)O)nc2)NC(=O)[C@H](Cc2ccc(C(N)=O)cc2)NC(=O)[C@](C)(CO)NC(=O)[C@H](Cc2c[nH]c3c(Cl)cccc23)NC(=O)[C@H](Cc2ccc(C(=O)O)cc2)NC(=O)[C@H](CC(N)=O)NC(=O)[C@H]2C[C@H](O)CN2C(=O)[C@H](Cc2c[nH]c3ccccc23)NC(=O)[C@@H]2CC[C@@H](O)CN2C(=O)[C@H](Cc2ccncc2)NC1=O` [SEQ ID NO. 191] (cyclo([4Pal][Pip(5R-OH)]W[dHyp]N[Phe(4-COOH)][Trp(7-Cl)][αMeS][Phe(4-CONH2)][Ala(2-carboxypyrimidin-5-yl)][Sar][Trp(βS-Me,7-OMe)][X1][Nle])): in test [1], the half-maximal inhibitory concentration (IC50) was 1600 pM. For the same compound, binding in test [2] was put at a Kd of 180 pM.

With `CCCC[C@@H]1NC(=O)[C@@H]2CC[C@@H](C2)NC(=O)[C@H]([C@@H](C)c2c[nH]c3c(OC)cccc23)NC(=O)CN(C)C(=O)[C@H](Cc2cc(F)c(C(=O)O)c(F)c2)NC(=O)[C@H](Cc2ccc(C(N)=O)cc2)NC(=O)[C@](C)(CO)NC(=O)[C@H](Cc2c[nH]c3c(C#N)cccc23)NC(=O)[C@H](Cc2cc(F)c(C(=O)O)c(F)c2)NC(=O)[C@H](CC(N)=O)NC(=O)[C@H]2C[C@H](NC(=O)C[N+](C)(C)C)CN2C(=O)[C@H](Cc2c[nH]c3ncccc23)NC(=O)[C@@H]2CC[C@@H](O)CN2C(=O)[C@H](Cc2ccncc2)NC1=O` [SEQ ID NO. 193] (cyclo([4Pal][Pip(5R-OH)][Trp(7-aza)][X49]N[X54][Trp(7-CN)][αMeS][Phe(4-CONH2)][X54][Sar][Trp(βS-Me,7-OMe)][X1][Nle])), the 50% inhibitory concentration (IC50) in test [1] turned out to be 1000 pM. Also, the dissociation constant Kd in test [2] stood at 150 pM.

Consider `CCCC[C@@H]1NC(=O)[C@@H]2CC[C@@H](C2)NC(=O)[C@H]([C@@H](C)c2c[nH]c3c(OC)cccc23)NC(=O)CN(C)C(=O)[C@H](Cc2ccc(OCCN(C)C)cc2)NC(=O)[C@H](Cc2ccc(C(=O)O)cc2)NC(=O)[C@](C)(CO)NC(=O)[C@H](Cc2c[nH]c3c(Cl)cccc23)NC(=O)[C@H](Cc2ccncc2)NC(=O)[C@H](CC(N)=O)NC(=O)[C@H](CCC(=O)O)N(C)C(=O)[C@H](Cc2c[nH]c3ccccc23)NC(=O)[C@@H]2CNCCN2C(=O)[C@H](Cc2ccncc2)NC1=O` [SEQ ID NO. 195] (cyclo([4Pal][Trp(7-Cl)][αMeS][Phe(4-COOH)]Y(Me2NCH2CH2)[Sar][Trp(βS-Me,7-OMe)][X1][Nle][4Pal][Pip(4-aza)]W[NMeE]N)), for which the half-maximal inhibitory concentration (IC50) in test [1] amounted to 1600 pM. Moreover, binding in test [2] was characterised by a dissociation constant (Kd) of 280 pM.

For `CCCC[C@@H]1NC(=O)[C@@H]2CC[C@@H](C2)NC(=O)[C@H]([C@@H](C)c2c[nH]c3c(OC)cccc23)NC(=O)CN(C)C(=O)[C@H](Cc2ccc(O)cc2)NC(=O)[C@H](Cc2ccc(C(=O)O)cc2)NC(=O)[C@](C)(CO)NC(=O)[C@H](Cc2c[nH]c3c(Cl)cccc23)NC(=O)[C@H](Cc2ccncc2)NC(=O)[C@H](CC(N)=O)NC(=O)[C@H](CCC(=O)O)N(C)C(=O)[C@H](Cc2cn(CC(=O)O)c3ccccc23)NC(=O)[C@@H]2CNCCN2C(=O)[C@H](Cc2ccncc2)NC1=O` [SEQ ID NO. 197] (cyclo([4Pal][Trp(7-Cl)][αMeS][Phe(4-COOH)]Y[Sar][Trp(βS-Me,7-OMe)][X1][Nle][4Pal][Pip(4-aza)][Trp(1-CH2COOH)][NMeE]N)), the concentration for half-maximal inhibition (IC50) in test [1] stood at 700 pM. This compound yielded a dissociation constant (Kd) in test [2] of 360 pM.
